# Earlier results in patent publication US8197801B2, “Use of compounds for the preservation of the human or animal body and compositions comprising same” (Arkema France, priority 2006, dated 2012).
# Settings: general statement
row,Compound,Toxicity relative to methanol and formaldehyde
1,"CCCCOCOCCCC [butylal, C4H9—(OCH2)—OC4H9]",much less toxic than methanol and formaldehyde
2,"CCOCOCC [ethylal, C2H5—(OCH2)—OC2H5]",much less toxic than methanol and formaldehyde
3,"COCOC [methylal, CH3—(OCH2)—OCH3]",much less toxic than methanol and formaldehyde
